Measured values: patent US20220387608A1, “ADRENOMEDULLIN-ANALOGUES FOR LONG-TERM STABILIZATION AND THEIR USE” (Bayer Aktiengesellschaft, priority 2019, published 2022)
Positions of bridges follow the written chain, without caps; N, C: chain ends. Non-standard residues stand in square brackets, D forms with d. Residues, ends and D or L forms follow the SMILES beside them. *: point of attachment. X1 = CN(C)c1ccc2c(c1)Oc1cc(N(C)C)ccc1C21OC(=O)c2ccc(C(=O)*)cc21; C18 diacid = O=C(O)CCCCCCCCCCCCCCCCC(=O)*; PEG3 = NCCOCCOCCOCCC(=O)O; Dap = NC[C@H](N)C(=O)O

What was measured:
AM1R = molecular target: T1, AM1R (Homo sapiens, UniProt O60895+Q16602); experiment: Activity determination in vitro: cAMP/CRE-luciferase reporter assay in HEK293 cells transiently co-transfected with CLR and RAMP2; format: cell-based; conditions: for Emax: HEK293, normalized to [G14]ADM(14-52); for EC50: HEK293 with CLR/RAMP2, CRE-luciferase, 3 h stimulation
T1 construct: EYFP; ECFP; expressed in transfected cells; host or cells: HEK-293 (transient co-transfection)
T1 sequence (Q16602 23-461): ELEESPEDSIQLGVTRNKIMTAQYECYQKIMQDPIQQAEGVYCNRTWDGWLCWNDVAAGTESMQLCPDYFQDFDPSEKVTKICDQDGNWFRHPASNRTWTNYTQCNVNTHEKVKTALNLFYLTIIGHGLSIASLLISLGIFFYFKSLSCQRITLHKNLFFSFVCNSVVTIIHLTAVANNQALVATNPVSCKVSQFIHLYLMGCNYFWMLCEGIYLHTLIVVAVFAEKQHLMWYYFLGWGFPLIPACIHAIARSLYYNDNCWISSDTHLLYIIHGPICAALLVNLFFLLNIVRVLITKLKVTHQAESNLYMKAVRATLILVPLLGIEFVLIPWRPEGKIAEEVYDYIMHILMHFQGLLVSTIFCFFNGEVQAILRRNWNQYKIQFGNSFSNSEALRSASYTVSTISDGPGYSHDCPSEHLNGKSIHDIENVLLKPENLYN
T1 sequence (O60895 43-175): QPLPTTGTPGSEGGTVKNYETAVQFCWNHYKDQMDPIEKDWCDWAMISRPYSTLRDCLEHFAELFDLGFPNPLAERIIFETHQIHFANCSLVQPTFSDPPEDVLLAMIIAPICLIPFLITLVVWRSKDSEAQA
In short: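 HEK-293 cells transiently co-transfected with CLR-EYFP, RAMP2-ECFP and a CRE-luc2P reporter, stimulated 3 h at 37° C with eight ligand concentrations in triplicate. Luminescence read by ONE-Glo, corrected to 5 μM forskolin, normalized to [G14]ADM(14-52) standard, and fitted by non-linear regression.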

[1] = Stability determination of TAMRA-labelled adrenomedullin analogues in human blood plasma; format: in vitro ADME; conditions: 37° C., 10^-5 M, slow-decay phase half-life, read-out: t1/2 (slow) (converted)
Protocol: The stability of the peptides was investigated using fluorescently labeled analogues, which were prepared as described above.
The TAMRA-labeled analogues were dissolved in 1.5 m1 of human blood plasma to a concentration of 10^−5 M and incubated at 37° C. under constant shaking. Samples of 150 μl were taken at different time points and precipitated with 300 μl Ethanol/ACN (1:1) for at least 1 h at −20° C. After centrifugation for 30 s at 12000 rpm, the supernatant was collected and incubated at −20° C. for at least 3 h. Subsequently, it was transferred into Costar® Spin-X® Centrifuge Tube Filters (0.22 μm) and centrifuged for 1 h at 12000 rpm. The samples were analyzed by RP-HPLC using a VariTide RPC column (Agilent Technologies, 250 mm×4.6 mm, […], 200 Å) with linear gradients of 0.1% TFA in water and 0.08% TFA in ACN; fluorescence measurement (λex=525 nm; λem=572 nm) was used for the detection of the analogues and their N-terminal fragments. The percentage of intact peptide was determined by peak integration. The values of peaks containing additional cleavage fragments were corrected by comparing intensities of cleavage fragments and intact peptide using MALDI-MS analysis (UltraflexIII, Bruker). The stability of the peptides was calculated with GraphPad Prism 5 (GraphPad Software) using a two phase exponential decay function for the determination of slow-decay phase half-lives (ln(2)/Kslow; Kslow: rate constant of slow part of exponential decay).

Structure (SMILES) | Emax (AM1R) [%] | EC50 (AM1R) [nM] | half-life [1] [h]
CC[C@H](C)[C@H](NC(=O)[C@H](CCC(N)=O)NC(=O)[C@H](Cc1c[nH]cn1)NC(=O)[C@H](C)NC(=O)[C@H](CC(C)C)NC(=O)[C@H](CCCCN)NC(=O)[C@H](CCC(N)=O)NC(=O)[C@@H](NC(=O)[C@@H](NC(=O)[C@@H]1CCC(=O)NC[C@H](NC(=O)CNC(=O)[C@@H](N)CCCCNC(=O)CCCCCCCCCCCCCCCCC(=O)O)C(=O)N[C@@H](CCCNC(=N)N)C(=O)N[C@@H](Cc2ccccc2)C(=O)NCC(=O)N[C@@H]([C@@H](C)O)C(=O)N1)[C@@H](C)O)C(C)C)C(=O)N[C@@H](Cc1ccc(O)cc1)C(=O)N[C@@H](CCC(N)=O)C(=O)N[C@@H](Cc1ccccc1)C(=O)N[C@H](C(=O)N[C@@H](CC(=O)O)C(=O)N[C@@H](CCCCN)C(=O)N[C@@H](CC(=O)O)C(=O)N[C@@H](CCCCN)C(=O)N[C@@H](CC(=O)O)C(=O)N[C@@H](CC(N)=O)C(=O)N[C@H](C(=O)N[C@@H](C)C(=O)N1CCC[C@H]1C(=O)N[C@@H](CCCNC(=N)N)C(=O)N[C@@H](CO)C(=O)N[C@@H](CCCCN)C(=O)N[C@H](C(=O)N[C@@H](CO)C(=O)N1CCC[C@H]1C(=O)N[C@@H](CCC(N)=O)C(=O)NCC(=O)N[C@@H](Cc1ccc(O)cc1)C(N)=O)[C@@H](C)CC)C(C)C)[C@@H](C)O [Example 15, ((3S,9S,12S,15S,21S)-15-(2-((S)-2-amino-6-(17-carboxyoctadecanamido)hexanamido)acetamido)-9-benzyl-12-(3-guanidinopropyl)-3-((R)-1-hydroxyethyl)-2,5,8,11,14,18-hexaoxo-1,4,7,10,13,17-hexaazacyclohenicosane-21-carbonyl)-L-threonyl-ADM(23-52)] (H-K(C18 diacid)G[Dap]RFGTETVQKLAHQIYQFTDKDKDNVAPRSKISPQGY-NH2; lactam 3-8) | 89 ± 2 | 3.4 | 
CC[C@H](C)[C@H](NC(=O)[C@H](CCC(N)=O)NC(=O)[C@H](Cc1c[nH]cn1)NC(=O)[C@H](C)NC(=O)[C@H](CC(C)C)NC(=O)[C@H](CCCCN)NC(=O)[C@H](CCC(N)=O)NC(=O)[C@@H](NC(=O)[C@@H](NC(=O)[C@@H]1CCC(=O)NC[C@H](NC(=O)CNC(=O)[C@@H](N)CCCCNC(=O)CCCCCCCCCCCCCCCCC(=O)O)C(=O)N[C@@H](CCCNC(=N)N)C(=O)N[C@@H](Cc2ccccc2)C(=O)NCC(=O)N[C@@H]([C@@H](C)O)C(=O)N1)[C@@H](C)O)C(C)C)C(=O)N[C@@H](Cc1ccc(O)cc1)C(=O)N[C@@H](CCC(N)=O)C(=O)N[C@@H](Cc1ccccc1)C(=O)N[C@H](C(=O)N[C@@H](CC(=O)O)C(=O)N[C@@H](CCCCN)C(=O)N[C@@H](CC(=O)O)C(=O)N[C@@H](CCCCN)C(=O)N[C@@H](CC(=O)O)C(=O)N[C@@H](CC(N)=O)C(=O)N[C@H](C(=O)N[C@@H](C)C(=O)N1CCC[C@H]1C(=O)N[C@H]1CCCCNC(=O)C[C@@H](C(=O)N2CCC[C@H]2C(=O)N[C@@H](CCC(N)=O)C(=O)NCC(=O)N[C@@H](Cc2ccc(O)cc2)C(N)=O)NC(=O)[C@H]([C@@H](C)CC)NC(=O)[C@H](CCCCN)NC(=O)[C@H](CO)NC1=O)C(C)C)[C@@H](C)O [Example 16] (H-K(C18 diacid)G[Dap]RFGTETVQKLAHQIYQFTDKDKDNVAPKSKIDPQGY-NH2; lactam 3-8, 31-35) | 100 ± 5 | 1.4 | 
CC[C@H](C)[C@H](NC(=O)[C@H](CCC(N)=O)NC(=O)[C@H](Cc1c[nH]cn1)NC(=O)[C@H](C)NC(=O)[C@H](CC(C)C)NC(=O)[C@H](CCCCN)NC(=O)[C@H](CCC(N)=O)NC(=O)[C@@H](NC(=O)[C@@H](NC(=O)[C@@H]1CCC(=O)NC[C@H](NC(=O)CNC(=O)[C@@H](N)CCCCNC(=O)CCCCCCCCCCCCCCCCC(=O)O)C(=O)N[C@@H](CCCNC(=N)N)C(=O)N[C@@H](Cc2ccccc2)C(=O)NCC(=O)N[C@@H]([C@@H](C)O)C(=O)N1)[C@@H](C)O)C(C)C)C(=O)N[C@@H](Cc1ccc(O)cc1)C(=O)N[C@@H](CCC(N)=O)C(=O)N[C@@H](Cc1ccccc1)C(=O)N[C@H](C(=O)NCCOCCOCCOCCC(=O)N[C@@H](CC(=O)O)C(=O)N[C@@H](CC(N)=O)C(=O)N[C@H](C(=O)N[C@@H](C)C(=O)N1CCC[C@H]1C(=O)N[C@H]1CCCCNC(=O)C[C@@H](C(=O)N2CCC[C@H]2C(=O)N[C@@H](CCC(N)=O)C(=O)NCC(=O)N[C@@H](Cc2ccc(O)cc2)C(N)=O)NC(=O)[C@H]([C@@H](C)CC)NC(=O)[C@H](CCCCN)NC(=O)[C@H](CO)NC1=O)C(C)C)[C@@H](C)O [Example 17] (H-K(C18 diacid)G[Dap]RFGTETVQKLAHQIYQFT[PEG3]DNVAPKSKIDPQGY-NH2; lactam 3-8, 28-32) | 77 ± 3 | 5 | 
CC[C@H](C)[C@H](NC(=O)[C@H](CCC(N)=O)NC(=O)[C@H](Cc1c[nH]cn1)NC(=O)[C@H](C)NC(=O)[C@H](CC(C)C)NC(=O)[C@H](CCCCN)NC(=O)[C@H](CCC(N)=O)NC(=O)[C@@H](NC(=O)[C@@H](NC(=O)[C@@H]1CSSC[C@H](NC(=O)CNC(=O)CN)C(=O)N[C@@H](CCCNC(=N)N)C(=O)N[C@@H](Cc2ccccc2)C(=O)NCC(=O)N[C@@H]([C@@H](C)O)C(=O)N1)[C@@H](C)O)C(C)C)C(=O)N[C@@H](Cc1ccc(O)cc1)C(=O)N[C@@H](CCC(N)=O)C(=O)N[C@@H](Cc1ccccc1)C(=O)N[C@H](C(=O)N[C@@H](CC(=O)O)C(=O)N[C@@H](CCCCN)C(=O)N[C@@H](CC(=O)O)C(=O)N[C@@H](CCCCN)C(=O)N[C@@H](CC(=O)O)C(=O)N[C@@H](CC(N)=O)C(=O)N[C@H](C(=O)N[C@@H](C)C(=O)N1CCC[C@H]1C(=O)N[C@@H](CCCNC(=N)N)C(=O)N[C@@H](CO)C(=O)N[C@@H](CCCCN)C(=O)N[C@H](C(=O)N[C@@H](CO)C(=O)N1CCC[C@H]1C(=O)N[C@@H](CCC(N)=O)C(=O)NCC(=O)N[C@@H](Cc1ccc(O)cc1)C(N)=O)[C@@H](C)CC)C(C)C)[C@@H](C)O [Reference, reference compound] | 99 ± 1 | 3.5 | 

The next lines start with the values.

Emax (AM1R) [%] | EC50 (AM1R) [nM] | half-life [1] [h] | Structure (SMILES)
 |  | 149 | CC[C@H](C)[C@H](NC(=O)[C@H](CCC(N)=O)NC(=O)[C@H](Cc1c[nH]cn1)NC(=O)[C@H](C)NC(=O)[C@H](CC(C)C)NC(=O)[C@H](CCCCN)NC(=O)[C@H](CCC(N)=O)NC(=O)[C@@H](NC(=O)[C@@H](NC(=O)[C@@H]1CSSC[C@H](NC(=O)CNC(=O)[C@H](CCCCNC(=O)CCCCCCCCCCCCCCCCC(=O)O)NC(=O)c2ccc3c(c2)C2(OC3=O)c3ccc(N(C)C)cc3Oc3cc(N(C)C)ccc32)C(=O)N[C@@H](CCCNC(=N)N)C(=O)N[C@@H](Cc2ccccc2)C(=O)NCC(=O)N[C@@H]([C@@H](C)O)C(=O)N1)[C@@H](C)O)C(C)C)C(=O)N[C@@H](Cc1ccc(O)cc1)C(=O)N[C@@H](CCC(N)=O)C(=O)N[C@@H](Cc1ccccc1)C(=O)N[C@H](C(=O)N[C@@H](CC(=O)O)C(=O)N[C@@H](CCCCN)C(=O)N[C@@H](CC(=O)O)C(=O)N[C@@H](CCCCN)C(=O)N[C@@H](CC(=O)O)C(=O)N[C@@H](CC(N)=O)C(=O)N[C@H](C(=O)N[C@@H](C)C(=O)N1CCC[C@H]1C(=O)N[C@@H](CCCNC(=N)N)C(=O)N[C@@H](CO)C(=O)N[C@@H](CCCCN)C(=O)N[C@H](C(=O)N[C@@H](CO)C(=O)N1CCC[C@H]1C(=O)N[C@@H](CCC(N)=O)C(=O)NCC(=O)N[C@@H](Cc1ccc(O)cc1)C(N)=O)[C@@H](C)CC)C(C)C)[C@@H](C)O [TAM-5]
 |  | > 144 | CC[C@H](C)[C@H](NC(=O)[C@H](CCC(N)=O)NC(=O)[C@H](Cc1c[nH]cn1)NC(=O)[C@H](C)NC(=O)[C@H](CC(C)C)NC(=O)[C@H](CCCCN)NC(=O)[C@H](CCC(N)=O)NC(=O)[C@@H](NC(=O)[C@@H](NC(=O)[C@@H]1CSSC[C@H](NC(=O)CNC(=O)[C@H](CCCCNC(=O)CCCCCCCCCCCCCCCCC(=O)O)NC(=O)c2ccc3c(c2)C2(OC3=O)c3ccc(N(C)C)cc3Oc3cc(N(C)C)ccc32)C(=O)N[C@@H](CCCNC(=N)N)C(=O)N[C@@H](Cc2ccccc2)C(=O)NCC(=O)N[C@@H]([C@@H](C)O)C(=O)N1)[C@@H](C)O)C(C)C)C(=O)N[C@@H](Cc1ccc(O)cc1)C(=O)N[C@@H](CCC(N)=O)C(=O)N[C@@H](Cc1ccccc1)C(=O)N[C@H](C(=O)N[C@@H](CC(=O)O)C(=O)N[C@@H](CCCCN)C(=O)N[C@@H](CC(=O)O)C(=O)N[C@@H](CCCCN)C(=O)N[C@@H](CC(=O)O)C(=O)N[C@@H](CC(N)=O)C(=O)N[C@H](C(=O)N[C@@H](C)C(=O)N1CCC[C@H]1C(=O)N[C@H]1CCCCNC(=O)C[C@@H](C(=O)N2CCC[C@H]2C(=O)N[C@@H](CCC(N)=O)C(=O)NCC(=O)N[C@@H](Cc2ccc(O)cc2)C(N)=O)NC(=O)[C@H]([C@@H](C)CC)NC(=O)[C@H](CCCCN)NC(=O)[C@H](CO)NC1=O)C(C)C)[C@@H](C)O [TAM-13] (X1-K(C18 diacid)GCRFGTCTVQKLAHQIYQFTDKDKDNVAPKSKIDPQGY-NH2; disulfide 3-8; lactam 31-35)
